According to ChEMBL document CHEMBL1201862, “PubChem BioAssay data set” (2004):
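Where inhibition never reached the appropriate level, the endpoint shown equals the highest concentration tested. Otherwise, values were interpolated linearly from a five-concentration, 48-hour dose response in 96-well plates. GI50 marks 50% less growth.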 The source made the active and inactive calls. Cut-off read from the data, not from the text of the source: active = GI50 up to about 1.1 µM and inactive = higher.

Columns and labels:
Experiment in all cases: growth of human tumour cells (NCI), 48 h
[1] = tested on: TK-10
[2] = tested on: SK-MEL-5
[3] = tested on: A549
[4] = tested on: HCT-116
[5] = tested on: MDA-N
[6] = tested on: SW-620
[7] = tested on: U-251
[8] = tested on: RXF 393
[9] = tested on: SF-268
[10] = tested on: DU-145
[11] = tested on: HT-29
[12] = tested on: NCI-H522
[13] = tested on: Hs-578T
[14] = tested on: CCRF-CEM
[15] = tested on: IGROV-1
[16] = tested on: LOX IMVI
[17] = tested on: OVCAR-5
[18] = tested on: A498
[19] = tested on: MOLT-4
[20] = tested on: HCC 2998
[21] = tested on: UACC-257
[22] = tested on: SF-539
[23] = tested on: NCI-H23
[24] = tested on: OVCAR-3
[25] = tested on: MDA-MB-435
[26] = tested on: Malme-3M
[27] = tested on: MDA-MB-231
[28] = tested on: T47D
[29] = tested on: NCI-H226
[30] = tested on: COLO 205
[31] = tested on: RPMI-8226
[32] = tested on: SK-MEL-28
[33] = tested on: OVCAR-8
[34] = tested on: BT-549
[35] = tested on: UACC-62
[36] = tested on: PC-3
[37] = tested on: EKVX
[38] = tested on: KM12
[39] = tested on: SNB-19
[40] = tested on: HL-60
[41] = tested on: NCI/ADR-RES
[42] = tested on: SK-MEL-2
[43] = tested on: NCI-H460
[44] = tested on: UO-31
[45] = tested on: SR
[46] = tested on: 786-0
[47] = tested on: SN12C
[48] = tested on: CAKI-1
[49] = tested on: M14
[50] = tested on: OVCAR-4
[51] = tested on: HCT-15
[52] = tested on: SNB-75
[53] = tested on: K562
[54] = tested on: MCF7
[55] = tested on: SK-OV-3
[56] = tested on: SF-295
[57] = tested on: ACHN
[58] = tested on: HOP-62

## CSc1c(C#N)c(S)[nH]c(=O)c1C#N
[1]
  GI50: 23.2 µM (inactive)
[2]
  GI50: 9.91 µM (inactive)
[3]
  GI50: 40.7 µM (inactive)
[4]
  GI50: 34.4 µM (inactive)
[5]
  GI50: 24.4 µM (inactive)
[6]
  GI50: 48.9 µM (inactive)
[7]
  GI50: > 100 µM (inactive)
[8]
  GI50: 26.1 µM (inactive)
[9]
  GI50: 32.7 µM (inactive)
[10]
  GI50: 48 µM (inactive)
[11]
  GI50: 25.4 µM (inactive)
[12]
  GI50: 8.34 µM (inactive)
[13]
  GI50: 24.2 µM (inactive)
[14]
  GI50: 55.5 µM (inactive)
[15]
  GI50: 22.8 µM (inactive)
[16]
  GI50: 37.1 µM (inactive)
[17]
  GI50: > 100 µM (inactive)
[18]
  GI50: 38.2 µM (inactive)
[19]
  GI50: 33 µM (inactive)
[20]
  GI50: 36.2 µM (inactive)
[21]
  GI50: 35.8 µM (inactive)
[22]
  GI50: > 100 µM (inactive)
[23]
  GI50: 23.7 µM (inactive)
[24]
  GI50: 33.8 µM (inactive)
[25]
  GI50: 20.6 µM (inactive)
[26]
  GI50: 7.14 µM (inactive)
[27]
  GI50: 42.8 µM (inactive)
[28]
  GI50: 24.9 µM (inactive)
[29]
  GI50: 30.3 µM (inactive)
[30]
  GI50: 31.9 µM (inactive)
[31]
  GI50: 3.89 µM (inactive)
[32]
  GI50: 46.1 µM (inactive)
[33]
  GI50: 47.2 µM (inactive)
[34]
  GI50: 40.5 µM (inactive)
[35]
  GI50: 21.2 µM (inactive)
[36]
  GI50: 29.4 µM (inactive)
[37]
  GI50: 29.6 µM (inactive)
[38]
  GI50: 65.8 µM (inactive)
[39]
  GI50: 58.5 µM (inactive)
[40]
  GI50: 1.85 µM (inactive)
[41]
  GI50: 43.2 µM (inactive)
[42]
  GI50: 13.7 µM (inactive)
[43]
  GI50: 97.7 µM (inactive)
[44]
  GI50: 18.7 µM (inactive)
[45]
  GI50: 51.2 µM (inactive)
[46]
  GI50: 71.8 µM (inactive)
[47]
  GI50: 85.5 µM (inactive)
[48]
  GI50: > 100 µM (inactive)
[49]
  GI50: 24.5 µM (inactive)
[50]
  GI50: 10.4 µM (inactive)
[51]
  GI50: 44.4 µM
[52]
  GI50: 32.1 µM (inactive)
[53]
  GI50: 18.1 µM (inactive)
[54]
  GI50: 37.9 µM (inactive)
[55]
  GI50: > 100 µM (inactive)

## CC(=O)n1[nH]c(=O)n(-c2ccccc2)c1=O
[1]
  GI50: > 100 µM (inactive)
[2]
  GI50: > 100 µM (inactive)
[3]
  GI50: > 100 µM (inactive)
[4]
  GI50: > 100 µM (inactive)
[5]
  GI50: > 100 µM (inactive)
[6]
  GI50: > 100 µM (inactive)
[7]
  GI50: > 100 µM (inactive)
[8]
  GI50: > 100 µM (inactive)
[9]
  GI50: > 100 µM (inactive)
[10]
  GI50: > 100 µM (inactive)
[11]
  GI50: > 100 µM (inactive)
[12]
  GI50: > 100 µM (inactive)
[13]
  GI50: > 100 µM (inactive)
[14]
  GI50: > 100 µM (inactive)
[15]
  GI50: > 100 µM (inactive)
[16]
  GI50: > 100 µM (inactive)
[17]
  GI50: > 100 µM (inactive)
[19]
  GI50: > 100 µM (inactive)
[56]
  GI50: > 100 µM (inactive)
[20]
  GI50: > 100 µM (inactive)
[21]
  GI50: > 100 µM (inactive)
[23]
  GI50: > 100 µM (inactive)
[24]
  GI50: > 100 µM (inactive)
[25]
  GI50: > 100 µM (inactive)
[26]
  GI50: > 100 µM (inactive)
[27]
  GI50: > 100 µM (inactive)
[28]
  GI50: > 100 µM (inactive)
[29]
  GI50: > 100 µM (inactive)
[30]
  GI50: > 100 µM (inactive)
[31]
  GI50: > 100 µM (inactive)
[32]
  GI50: > 100 µM (inactive)
[33]
  GI50: > 100 µM (inactive)
[34]
  GI50: > 100 µM (inactive)
[35]
  GI50: > 100 µM (inactive)
[36]
  GI50: > 100 µM (inactive)
[37]
  GI50: > 100 µM (inactive)
[38]
  GI50: > 100 µM (inactive)
[57]
  GI50: > 100 µM (inactive)
[39]
  GI50: > 100 µM (inactive)
[40]
  GI50: > 100 µM (inactive)
[41]
  GI50: > 100 µM (inactive)
[42]
  GI50: > 100 µM (inactive)
[43]
  GI50: > 100 µM (inactive)
[44]
  GI50: > 100 µM (inactive)
[45]
  GI50: > 100 µM (inactive)
[46]
  GI50: > 100 µM (inactive)
[47]
  GI50: > 100 µM (inactive)
[48]
  GI50: > 100 µM (inactive)
[49]
  GI50: > 100 µM (inactive)
[50]
  GI50: > 100 µM (inactive)
[51]
  GI50: > 100 µM
[58]
  GI50: > 100 µM (inactive)
[53]
  GI50: > 100 µM (inactive)
[54]
  GI50: > 100 µM (inactive)
[55]
  GI50: > 100 µM (inactive)
